Test: xn = mol fraction of the nth substance listed

CCCCn1cc[n+](C)c1.O=S(=O)([N-]S(=O)(=O)C(F)(F)F)C(F)(F)F + CCCCn1cc[n+](C)c1.F[P-](F)(F)(F)(F)F
Conditions | viscosity [mPa·s]
318.15 K, 100 kPa, x1 = 0.25 | 58.45

C1COCCO1 + CCCO
viscosity [mPa·s]
Conditions | 298.15 K | 303.15 K | 308.15 K | 313.15 K
101 kPa, x1 = 0.4 | 1.131 | – | – | –
101.3 kPa, x1 = 0.0923 | 1.609 | 1.42 | 1.289 | 1.179
101.3 kPa, x1 = 0.122 | 1.499 | 1.332 | 1.209 | 1.1
101.3 kPa, x1 = 0.2236 | 1.284 | 1.15 | 1.057 | 0.9732
101.3 kPa, x1 = 0.2793 | 1.223 | 1.084 | 0.9926 | 0.9135
101.3 kPa, x1 = 0.3323 | 1.158 | 1.065 | 0.9698 | 0.8894
101.3 kPa, x1 = 0.3964 | 1.106 | 1.014 | 0.9229 | 0.8503
101.3 kPa, x1 = 0.4347 | 1.057 | 0.9719 | 0.8966 | 0.8243
101.3 kPa, x1 = 0.5294 | 1.04 | 0.9553 | 0.8788 | 0.8135
101.3 kPa, x1 = 0.5833 | 1.028 | 0.949 | 0.8777 | 0.8149
101.3 kPa, x1 = 0.6365 | 1.028 | 0.9503 | 0.8792 | 0.8185
101.3 kPa, x1 = 0.6538 | 1.033 | 0.9567 | 0.8791 | 0.8196
101.3 kPa, x1 = 0.7379 | 1.051 | 0.9745 | 0.9054 | 0.8374
101.3 kPa, x1 = 0.8132 | 1.085 | 0.9921 | 0.9184 | 0.8578
101.3 kPa, x1 = 0.8989 | 1.117 | 1.028 | 0.9533 | 0.887

C1=C[C@H]2[C@@H](C1)[C@H]1C=C[C@@H]2C1 + CCO
viscosity [mPa·s], 101.2 kPa
Conditions | x1 = 0.1001 | x1 = 0.1997 | x1 = 0.2973 | x1 = 0.4003 | x1 = 0.501 | x1 = 0.6023 | x1 = 0.699 | x1 = 0.8013 | x1 = 0.9002
293.15 K | 1.493 | 1.788 | 2.076 | 2.381 | 2.68 | 3.001 | 3.332 | 3.701 | 4.073
303.15 K | 1.232 | 1.449 | 1.657 | 1.879 | 2.098 | 2.339 | 2.595 | 2.879 | 3.161
313.15 K | 1.038 | 1.209 | 1.369 | 1.541 | 1.718 | 1.911 | 2.111 | 2.345 | 2.579

C1COCCO1 + CCO
viscosity [mPa·s]
Conditions | 293.15 K | 298.15 K | 303.15 K | 308.15 K
101 kPa, x1 = 0.0584 | – | 0.992 | – | –
101 kPa, x1 = 0.1156 | – | 0.938 | – | –
101 kPa, x1 = 0.1834 | – | 0.884 | – | –
101 kPa, x1 = 0.2678 | – | 0.86 | – | –
101 kPa, x1 = 0.3 | – | 0.9243 | – | –
101 kPa, x1 = 0.3438 | – | 0.849 | – | –
101 kPa, x1 = 0.4473 | – | 0.863 | – | –
101 kPa, x1 = 0.5589 | – | 0.885 | – | –
101 kPa, x1 = 0.689 | – | 0.933 | – | –
101 kPa, x1 = 0.8264 | – | 1.029 | – | –
101 kPa, x2 = 0.1798 | – | 1.027 | 0.9544 | 0.8897
101 kPa, x2 = 0.324 | – | 0.9634 | 0.8928 | 0.8361
101 kPa, x2 = 0.4539 | – | 0.9317 | 0.8654 | 0.8124
101 kPa, x2 = 0.5608 | – | 0.9336 | 0.8661 | 0.8072
101 kPa, x2 = 0.6591 | – | 0.9547 | 0.8825 | 0.8181
101 kPa, x2 = 0.7972 | – | 1.025 | 0.9451 | 0.8639
101 kPa, x2 = 0.8858 | – | 1.102 | 1.008 | 0.919
101 kPa, x2 = 0.9427 | – | 1.179 | 1.068 | 0.9697
101.33 kPa, x1 = 0.0703 | 1.069 | 0.96 | 0.8879 | 0.8147
101.33 kPa, x1 = 0.1455 | 0.9889 | 0.8885 | 0.8285 | 0.7595
101.33 kPa, x1 = 0.2259 | 0.9468 | 0.8529 | 0.7902 | 0.7308
101.33 kPa, x1 = 0.3126 | 0.9216 | 0.8387 | 0.7727 | 0.7174
101.33 kPa, x1 = 0.4045 | 0.9225 | 0.8391 | 0.7751 | 0.7182
101.33 kPa, x1 = 0.5051 | 0.9277 | 0.8469 | 0.7819 | 0.7278
101.33 kPa, x1 = 0.6163 | 0.9582 | 0.8803 | 0.8165 | 0.7622
101.33 kPa, x1 = 0.7297 | 1.029 | 0.9425 | 0.8647 | 0.8101
101.33 kPa, x1 = 0.86 | 1.135 | 1.044 | 0.9699 | 0.8938
101.33 kPa, x2 = 0.2101 | – | – | 0.984 | –
101.33 kPa, x2 = 0.5822 | – | – | 0.825 | –
101.33 kPa, x2 = 0.7056 | – | – | 0.798 | –
101.33 kPa, x2 = 0.9653 | – | – | 0.927 | –

COC(=O)CC(=O)OC + CCO
303.15 K, 101 kPa
Conditions | viscosity [mPa·s]
x1 = 0.0532 | 0.972
x1 = 0.1129 | 0.966
x1 = 0.1787 | 0.978
x1 = 0.2533 | 0.998
x1 = 0.337 | 1.037
x1 = 0.4329 | 1.097
x1 = 0.5426 | 1.181
x1 = 0.6705 | 1.314
x1 = 0.8207 | 1.513

OCC(F)(F)F + CCO
viscosity [mPa·s]
Conditions | 298.15 K | 303.15 K | 308.15 K | 313.15 K | 318.15 K | 323.15 K
100 kPa, x1 = 0.1081 | 1.09 | 1 | 0.92 | 0.84 | 0.77 | 0.71
100 kPa, x1 = 0.2039 | 1.09 | 0.99 | 0.91 | 0.83 | 0.76 | 0.7
100 kPa, x1 = 0.304 | 1.1 | 0.99 | 0.91 | 0.83 | 0.76 | 0.7
100 kPa, x1 = 0.3989 | 1.12 | 1.01 | 0.92 | 0.84 | 0.77 | 0.7
100 kPa, x1 = 0.508 | 1.16 | 1.05 | 0.95 | 0.86 | 0.79 | 0.72
100 kPa, x1 = 0.601 | 1.22 | 1.1 | 0.99 | 0.9 | 0.82 | 0.75
100 kPa, x1 = 0.7087 | 1.31 | 1.18 | 1.06 | 0.96 | 0.87 | 0.79
100 kPa, x1 = 0.7984 | 1.4 | 1.26 | 1.12 | 1.02 | 0.92 | 0.83
100 kPa, x1 = 0.9032 | 1.56 | 1.38 | 1.23 | 1.11 | 0.99 | 0.9
101 kPa, x1 = 0.01998 | 1.104 | – | – | – | – | –
101 kPa, x1 = 0.0384 | 1.102 | – | – | – | – | –
101 kPa, x1 = 0.05967 | 1.098 | – | – | – | – | –
101 kPa, x1 = 0.1122 | 1.097 | – | – | – | – | –
101 kPa, x1 = 0.1523 | 1.089 | – | – | – | – | –
101 kPa, x1 = 0.2584 | 1.082 | – | – | – | – | –
101 kPa, x1 = 0.3059 | 1.105 | – | – | – | – | –
101 kPa, x1 = 0.5638 | 1.215 | – | – | – | – | –
101 kPa, x1 = 0.8074 | 1.427 | – | – | – | – | –

From the CheMixHub viscosity set
